Data published in patent US7973075B2, “Kainate receptor-selective epimeric analogs of dysiherbaine” (priority 2007, dated 2011).
Entries after “also recorded” stand apart in the source; their conditions may differ. Where two headings read alike, the source gives them in different places.

Columns and labels:
GluR5 [1] = target: T1, GluR5 (Rattus norvegicus, UniProt P22756); conditions: Tables 1-2; comparison values of neoDH and MSVIII-19 (Sanders et al., 2005); read-out: GluR5 binding affinity (displacement of [3H]kainate); cited from earlier work
T1 construct: expressed in transfected cells; HEK 293 (patch clamp)

GluR5-2a = target: T2, GluR5-2a (Rattus norvegicus, UniProt P22756, DEL402-416); conditions: Sanders et al., 2005; read-out: IC50 for inhibition of glutamate-evoked currents, GluR5-2a receptors; cited from earlier work
T2 construct: expressed in transfected cells; host or cells: HEK-293-T/17

GluR1(i) = target: T3, GluR1(i) (Rattus norvegicus, UniProt P19490); conditions: Sanders et al., 2005; cited from earlier work
T3 construct: expressed in transfected cells; host or cells: HEK-293-T/17

GluR1 [2] = target: T4, GluR1 (Rattus norvegicus, UniProt P19490); conditions: Table 1; comparison value of MSVIII-19 (Sanders et al., 2005); read-out: GluR1 binding affinity (displacement of [3H]AMPA); cited from earlier work
T4 construct: expressed in transfected cells; host or cells: COS-7 or HEK-T/17

GluR6a [3] = target: T5, GluR6a (Rattus norvegicus, UniProt P42260); conditions: Sanders et al., 2005; cited from earlier work
T5 construct: expressed in transfected cells; host or cells: HEK-293-T/17

GluR2 = target: T6, GluR2 (Rattus norvegicus, UniProt P19491); assay: Radioligand displacement ([3H]AMPA), Example 1; type: binding
T6 construct: expressed in transfected cells; host or cells: COS-7 or HEK-T/17
Protocol: (§1) Dysiherbaine (DH) was used as a template for generating novel KAR ligands. (See FIG. 1.) These included 8-deoxy and 9-deoxy analogs of neodysiherbaine (neoDH). (See FIG. 2.) The binding of these analogs to glutamate receptors was assessed by radioligand binding as follows. Membrane preparations from COS-7 or HEK-T/17 cells were isolated 2-3 days after transfection. Displacement assays were performed as described previously (Swanson et al., NEURON 1997; 19:913-26). Unlabeled marine toxin analogs were used to displace [^3H]kainate or [^3H]AMPA (PerkinElmer) from kainate and AMPA receptors, respectively. (See FIG. 2 and Table 1.)
(§2) Non-specific binding was defined in the presence of 1 mM glutamate. The effect of these analogs on electrophysiology was assessed as follows. HEK 293 cells were transfected with receptor cDNAs in combination with eGFP cDNA. Patch-clamp recordings from transfected cells were made 24-72 hours later using a fast application system described previously (Swanson et al., NEURON 1997; 19:913-26). (See FIG. 3.)
(§3) Additional epimer analogs were generated. These included 4-epi-neodysiherbaine, 8-epi-neodysiherbaine, 9-epi-neodysiherbaine, and 8,9-epi-neodysiherbaine. (See FIG. 4.) The binding of these analogs to glutamate receptors was assessed by radioligand binding as described above. (See FIG. 4 and Table 2.)

GluR1 [4] = target: T4, GluR1; assay: Radioligand displacement ([3H]AMPA), Example 1; type: binding
Protocol: as §1, §2, §3

GluR5 [5] = target: T1, GluR5; assay: Patch-clamp recordings from transfected HEK 293 cells, Example 1; type: cell-based; conditions: Example 1, FIG. 3 and 5
Protocol: as §2
The effect of these analogs on electrophysiology also was assessed as described above. […] The results further indicate that the C8 and C9 substituents are necessary for binding to all AMPA and KAR subunits except for GluR5 subunits. The C9 polar group must be present and in the correct spatial orientation for high-affinity GluR5 subunit binding. Inter-domain contacts mediated by residue 721S are critical determinants of binding affinity. The epimer analog 9-deoxy-neoDH mimics the binding affinity of the di-deoxy analog MSVIII-19, but acts as an agonist rather than an antagonist.

GluR7 = target: T7, GluR7 (Rattus norvegicus, UniProt P42264); assay: Radioligand displacement ([3H]kainate), Example 1; type: binding
T7 construct: expressed in transfected cells; host or cells: COS-7 or HEK-T/17
Protocol: as §1, §2, §3

GluR6a [6] = target: T5, GluR6a; assay: Whole-cell patch clamp recordings, transfected HEK-293-T/17 cells, Example 2; type: cell-based; conditions: for agonist activity: analog-evoked currents from GluR6a receptors (words): 1 s test application of the analog at a high concentration (50-100 μM)
Protocol: Cell Culture and Electrophysiology. HEK-293-T/17 cells were maintained in Dulbecco's modified Eagle's medium (DMEM) supplemented with 100 μg/mL penicillin, 100 μg/mL streptomycin, and 10% heat inactivated fetal bovine serum. One day before transfection, HEK-T/17 cells were plated at low density on glass coverslips coated with 100 μg/ml poly-D-lysine and 100 μg/ml collagen. Cells were transfected with receptor cDNAs ([…]) in combination with enhanced green fluorescent protein (eGFP) cDNA for visualization of transfected cells. Transfections were carried out with Fugene6 (Roche Applied Science) according to the manufacturer's protocol and used 2-3 days following transfection. Internal solution consisted of 110 mM CsF, 30 mM CsCl, 4 mM NaCl, 0.5 mM CaCl2, 10 mM HEPES, and 5 mM EGTA, and was adjusted to pH=7.3 with CsOH. The external solution contained 150 mM NaCl, 2.8 mM KCI, 2 mM CaCl2, 1 mM MgCl2, and 10 mM HEPES, adjusted to pH=7.3 with NaOH. Patch electrodes from thick-walled borosilicate glass (Warner Instruments, Hamden, Conn.) were pulled to a final resistance of 1.5 to 2.5 MO after fire polishing. […] To determine the pre-desensitization IC50 of selected analogs, several control glutamate (10 mM) applications were followed by a 2.5 minute application of various concentrations of 8-deoxy-neoDH, 9-deoxy-neoDH, or MSVIII-19, after which the analogs were co-applied with glutamate. A similar protocol was followed to measure the recovery of glutamate-evoked currents, with the exception that the analogs were not co-applied with glutamate. Whole cell patch clamp recordings were carried out using an Axopatch 200B amplifier (Axon Instruments). Data were analyzed with Origin 7.5 (OriginLab Corp.), and Prism4 (GraphPad Software Inc.); inhibition-response curves were plotted and fit with a one-site competition curve constrained to fixed minima (0) and maxima (100).
The pharmacological activities of the C2/C4 epimers were determined in patch-clamp assays with GluR5-2a or GluR6a KARs as well as GluR4(i) AMPA receptors.
30 μM 2,4-epi-neoDH reduced glutamate-induced currents from GluR5-2a receptors by −70% while the same concentration reduced glutamate-induced currents from GluR6a receptors by −30% (FIG. 13A). […] We noted that the data derived from recording of the GluR5-2a receptor was poorly fit by the single component logistic curve, particularly at the lower concentrations. This inconsistency may arise from inter-subunit or inter-dimer cooperativity in the inhibitory activity or may be an apparent artifact resulting from run-down of the GluR5-2a receptor currents.

mice = assay: Seizure (convulsant) activity after i.c.v. injection; type: in vivo
[7] = Tables 1-2, read-out: GluR2 binding affinity (displacement of [3H]AMPA)
[8] = Tables 1-2, read-out: GluR1 binding affinity (displacement of [3H]AMPA)
[9] = Tables 1-2, read-out: GluR7 binding affinity (displacement of [3H]kainate)

T5 sequence (P42260 32-908): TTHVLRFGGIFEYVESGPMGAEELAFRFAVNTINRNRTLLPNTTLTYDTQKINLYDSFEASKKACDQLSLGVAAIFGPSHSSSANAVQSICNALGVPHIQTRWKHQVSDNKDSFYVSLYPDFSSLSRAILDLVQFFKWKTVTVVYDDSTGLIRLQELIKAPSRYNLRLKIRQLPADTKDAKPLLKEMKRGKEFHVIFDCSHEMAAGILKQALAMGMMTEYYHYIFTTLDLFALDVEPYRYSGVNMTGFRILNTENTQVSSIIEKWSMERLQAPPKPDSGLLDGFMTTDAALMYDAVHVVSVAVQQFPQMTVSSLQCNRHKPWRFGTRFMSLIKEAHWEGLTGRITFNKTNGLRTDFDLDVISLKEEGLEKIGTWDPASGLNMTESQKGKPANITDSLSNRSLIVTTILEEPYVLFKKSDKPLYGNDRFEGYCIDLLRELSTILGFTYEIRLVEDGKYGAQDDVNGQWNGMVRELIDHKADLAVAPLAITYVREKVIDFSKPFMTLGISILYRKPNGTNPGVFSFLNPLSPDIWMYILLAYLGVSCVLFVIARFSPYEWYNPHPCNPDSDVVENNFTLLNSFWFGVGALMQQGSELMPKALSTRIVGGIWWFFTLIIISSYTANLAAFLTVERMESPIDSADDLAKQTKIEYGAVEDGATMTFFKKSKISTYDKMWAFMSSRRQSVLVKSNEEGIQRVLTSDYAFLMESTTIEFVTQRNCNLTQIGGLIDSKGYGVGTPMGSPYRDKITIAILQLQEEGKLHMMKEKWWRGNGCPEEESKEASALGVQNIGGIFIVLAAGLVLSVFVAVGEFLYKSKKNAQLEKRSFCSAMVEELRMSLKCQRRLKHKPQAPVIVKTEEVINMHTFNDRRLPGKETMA
T6 sequence (P19491 22-883 isoform P19491-2 limits assumed): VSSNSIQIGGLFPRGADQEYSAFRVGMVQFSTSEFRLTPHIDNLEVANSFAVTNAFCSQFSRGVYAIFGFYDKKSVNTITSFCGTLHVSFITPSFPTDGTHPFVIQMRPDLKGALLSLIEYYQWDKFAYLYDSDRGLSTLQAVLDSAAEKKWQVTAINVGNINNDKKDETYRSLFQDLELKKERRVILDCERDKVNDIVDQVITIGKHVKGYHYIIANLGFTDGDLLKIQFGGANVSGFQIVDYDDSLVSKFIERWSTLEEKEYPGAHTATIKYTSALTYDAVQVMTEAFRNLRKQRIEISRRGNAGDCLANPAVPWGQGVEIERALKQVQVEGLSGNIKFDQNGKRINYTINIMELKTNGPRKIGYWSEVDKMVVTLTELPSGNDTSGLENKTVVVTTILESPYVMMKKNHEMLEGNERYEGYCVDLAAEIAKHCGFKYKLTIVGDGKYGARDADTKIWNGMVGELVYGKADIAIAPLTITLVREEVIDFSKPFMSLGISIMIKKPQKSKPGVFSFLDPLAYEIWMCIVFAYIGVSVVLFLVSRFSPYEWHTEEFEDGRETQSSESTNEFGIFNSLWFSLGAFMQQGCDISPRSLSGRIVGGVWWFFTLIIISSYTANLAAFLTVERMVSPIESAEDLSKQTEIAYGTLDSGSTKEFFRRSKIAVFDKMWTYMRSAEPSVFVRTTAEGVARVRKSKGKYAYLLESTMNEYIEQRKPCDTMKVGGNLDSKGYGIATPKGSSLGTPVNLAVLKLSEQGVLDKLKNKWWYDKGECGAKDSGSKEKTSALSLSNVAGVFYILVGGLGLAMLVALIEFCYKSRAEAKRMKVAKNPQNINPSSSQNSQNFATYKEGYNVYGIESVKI
T7 sequence (P42264 32-919): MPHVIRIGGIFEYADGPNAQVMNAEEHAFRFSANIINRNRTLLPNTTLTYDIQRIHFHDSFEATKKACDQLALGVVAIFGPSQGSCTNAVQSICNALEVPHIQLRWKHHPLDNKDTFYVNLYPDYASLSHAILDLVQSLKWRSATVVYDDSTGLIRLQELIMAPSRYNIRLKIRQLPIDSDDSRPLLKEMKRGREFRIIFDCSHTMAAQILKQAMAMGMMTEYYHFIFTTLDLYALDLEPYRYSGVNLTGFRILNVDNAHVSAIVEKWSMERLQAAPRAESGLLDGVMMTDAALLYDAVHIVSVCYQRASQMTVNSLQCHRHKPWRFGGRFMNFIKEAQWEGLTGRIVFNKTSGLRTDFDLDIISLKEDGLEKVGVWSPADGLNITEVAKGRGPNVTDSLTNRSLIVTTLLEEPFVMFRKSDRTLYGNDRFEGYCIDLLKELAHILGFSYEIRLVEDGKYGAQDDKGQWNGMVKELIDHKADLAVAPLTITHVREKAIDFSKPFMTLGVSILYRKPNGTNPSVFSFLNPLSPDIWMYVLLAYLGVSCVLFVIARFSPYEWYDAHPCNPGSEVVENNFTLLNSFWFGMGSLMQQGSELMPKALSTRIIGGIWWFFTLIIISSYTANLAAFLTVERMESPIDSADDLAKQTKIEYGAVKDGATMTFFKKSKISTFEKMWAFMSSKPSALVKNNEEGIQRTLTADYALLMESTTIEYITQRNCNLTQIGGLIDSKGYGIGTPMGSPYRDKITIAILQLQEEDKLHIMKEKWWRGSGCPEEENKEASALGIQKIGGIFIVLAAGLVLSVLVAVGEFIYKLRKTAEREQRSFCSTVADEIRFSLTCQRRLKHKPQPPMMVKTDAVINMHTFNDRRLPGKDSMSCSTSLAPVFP
T1 sequence (P22756 with tags, fused parts or gaps isoform P22756-2): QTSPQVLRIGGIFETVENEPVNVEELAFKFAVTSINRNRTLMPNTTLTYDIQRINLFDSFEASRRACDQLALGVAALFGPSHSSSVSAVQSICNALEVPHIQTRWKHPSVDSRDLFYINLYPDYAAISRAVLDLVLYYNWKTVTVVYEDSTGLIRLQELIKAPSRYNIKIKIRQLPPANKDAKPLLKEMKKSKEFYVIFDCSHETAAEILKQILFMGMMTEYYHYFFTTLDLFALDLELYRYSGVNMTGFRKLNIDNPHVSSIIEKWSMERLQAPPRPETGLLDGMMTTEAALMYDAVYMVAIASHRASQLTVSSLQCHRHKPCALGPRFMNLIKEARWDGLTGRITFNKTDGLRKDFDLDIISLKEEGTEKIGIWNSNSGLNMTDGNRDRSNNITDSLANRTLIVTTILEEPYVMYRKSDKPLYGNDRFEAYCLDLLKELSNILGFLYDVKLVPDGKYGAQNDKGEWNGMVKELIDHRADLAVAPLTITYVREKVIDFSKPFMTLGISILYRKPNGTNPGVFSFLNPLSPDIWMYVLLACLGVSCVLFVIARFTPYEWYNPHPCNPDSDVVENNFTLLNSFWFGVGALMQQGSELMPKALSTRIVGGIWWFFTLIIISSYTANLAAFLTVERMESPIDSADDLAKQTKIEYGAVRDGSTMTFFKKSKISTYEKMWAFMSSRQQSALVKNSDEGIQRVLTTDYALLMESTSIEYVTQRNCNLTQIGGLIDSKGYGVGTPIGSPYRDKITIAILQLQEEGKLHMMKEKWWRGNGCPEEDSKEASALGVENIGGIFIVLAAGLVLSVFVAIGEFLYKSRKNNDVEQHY
T4 sequence (P19490 19-907 isoform P19490-2 limits assumed): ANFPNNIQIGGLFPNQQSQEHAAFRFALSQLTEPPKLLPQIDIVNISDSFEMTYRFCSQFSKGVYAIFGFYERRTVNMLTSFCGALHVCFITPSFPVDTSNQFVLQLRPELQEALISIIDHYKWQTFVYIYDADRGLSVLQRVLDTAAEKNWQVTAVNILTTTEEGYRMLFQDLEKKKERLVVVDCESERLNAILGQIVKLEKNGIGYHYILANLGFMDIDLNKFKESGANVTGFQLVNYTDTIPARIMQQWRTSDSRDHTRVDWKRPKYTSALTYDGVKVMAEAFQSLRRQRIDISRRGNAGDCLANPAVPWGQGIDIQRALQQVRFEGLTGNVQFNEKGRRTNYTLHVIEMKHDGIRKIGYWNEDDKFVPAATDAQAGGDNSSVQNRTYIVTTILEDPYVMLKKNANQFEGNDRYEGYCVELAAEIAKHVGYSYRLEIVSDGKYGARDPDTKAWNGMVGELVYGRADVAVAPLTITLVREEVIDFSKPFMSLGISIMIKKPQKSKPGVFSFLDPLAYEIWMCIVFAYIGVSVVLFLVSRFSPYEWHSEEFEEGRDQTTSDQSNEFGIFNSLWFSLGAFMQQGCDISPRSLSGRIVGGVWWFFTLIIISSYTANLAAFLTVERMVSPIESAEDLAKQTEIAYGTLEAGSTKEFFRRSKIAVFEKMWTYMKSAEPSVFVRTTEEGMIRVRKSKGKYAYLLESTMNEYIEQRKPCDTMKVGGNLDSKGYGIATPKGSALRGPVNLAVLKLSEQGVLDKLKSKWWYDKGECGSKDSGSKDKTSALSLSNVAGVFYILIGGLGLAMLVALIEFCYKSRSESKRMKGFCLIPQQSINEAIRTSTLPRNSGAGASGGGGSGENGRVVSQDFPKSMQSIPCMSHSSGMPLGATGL
T2 sequence (P22756 with tags, fused parts or gaps isoform P22756-2 limits assumed, stated change not applied): as the sequence (P22756 with tags, fused parts or gaps isoform P22756-2) above
T3 sequence (P19490 19-907 isoform P19490-2 limits assumed): as the sequence (P19490 19-907 isoform P19490-2 limits assumed) above

For N[C@@H](C[C@]1(C(=O)O)C[C@H]2OCCC[C@H]2O1)C(=O)O [MSVIII-19, 8,9-dideoxy-neoDH], the Ki (GluR5 [1]) is given as 0.128 µM, the IC50 (GluR5-2a) is given as 0.023 µM and the Ki (GluR1(i)) is given as over 100 µM. The Ki (GluR1 [2]) was over 100 µM and the Ki (GluR6a [3]) was over 100 µM.

For N[C@@H](C[C@]1(C(=O)O)C[C@H]2OCC[C@@H](O)[C@H]2O1)C(=O)O [9-deoxy-neoDH], the Ki (GluR2; [7]) was over 100 µM, the Ki (GluR1 [4]; [8]) was over 100 µM and the “agonist or antagonist at GluR5 (electrophysiology)” value (GluR5 [5]) was “GluR5 agonists”. For the same compound, the Ki (GluR7; [9]) was over 100 µM.

In the case of N[C@@H](C[C@@]1(C(=O)O)CC2OCC(O)C(O)C2O1)C(=O)O (single isomer, unassigned) [2,4-epi-neoDH, 2,4-epi-neodysiherbaine], the “recovery of glutamate-evoked currents after analog application, GluR6a” value (GluR6a [6]; 30 μM analog) is reported as “current amplitudes recovered more slowly”, the “reduction of glutamate-induced currents from GluR6a receptors” value (GluR6a [6]; 30 μM analog) is reported as about 30% and the IC50 (GluR6a [6]; 10 mM glutamate in continued presence of analog, read-out: IC50 inhibition of glutamate-evoked currents, GluR6a) is reported as 74 µM. The “agonist activity: analog-evoked currents from GluR6a receptors (words)” value (from here on “agonist activity: analog-evoked currents”) (GluR6a [6]) was “failed to elicit detectable current; also recorded: antagonist (or possibly a very weak partial agonist); also recorded: fails to activate GluR5 or GluR6 receptors, even at 100 μM” and the “agonist activity: analog-evoked currents” value (GluR6a [6]; listed as 2,4-epineoDH) was “fails to activate”.

For NC(CC1(C(=O)O)CC2OCC(O)C(O)C2O1)C(=O)O (stereo not drawn) [8-epi-neoDH, 8-epi-neodysiherbaine], the Ki (GluR2; [7]) was 23 µM, the Ki (GluR1 [4]; [8]) was 17 µM and the “agonist or antagonist at GluR5 (electrophysiology)” value (GluR5 [5]) was “GluR5 agonist”.

NC(CC1(C(=O)O)CC2OCC(O)C(O)C2O1)C(=O)O (stereo not drawn) [9-epi-neoDH, 9-epi-neodysiherbaine] showed a Ki (GluR2; [7]) of over 100 µM, a Ki (GluR1 [4]; [8]) of over 100 µM and a Ki (GluR7; [9]) of over 100 µM.

In the case of N[C@@H](C[C@@]1(C(=O)O)CC2OCC(O)C(O)C2O1)C(=O)O (single isomer, unassigned) [4-epi-neoDH, 4-epi-neodysiherbaine], the “recovery of glutamate-evoked currents after analog application, GluR6a” value (GluR6a [6]; 30 μM analog) is reported as “only exhibited a transient desensitization”, the “agonist activity: analog-evoked currents” value (GluR6a [6]) is reported as “evoked small but detectable currents; also recorded: elicits large currents; also recorded: activates” and the “agonist or antagonist at GluR5 (electrophysiology)” value (GluR5 [5]) is reported as “GluR5/GluR6 antagonist”. The “ED50, fold lower than that of 2,4-epi-neoDH” value (mice; i.c.v. injection, mice) was over 6 fold.

With NC(CC1(C(=O)O)CC2OCC(O)C(O)C2O1)C(=O)O (stereo not drawn) [8,9-epi-neoDH, 8,9-epi-neodysiherbaine] the Ki (GluR2; [7]) was over 100 µM, the Ki (GluR1 [4]; [8]) was over 100 µM and the “agonist or antagonist at GluR5 (electrophysiology)” value (GluR5 [5]) was “GluR5 antagonist”. For the same compound, the Ki (GluR7; [9]) was over 100 µM and the “convulsive behavior” value (mice; high doses) was “fails to elicit convulsive behavior even at high doses”.

For N[C@@H](C[C@]1(C(=O)O)C[C@H]2OC[C@@H](O)C[C@H]2O1)C(=O)O [8-deoxy-neoDH], the Ki (GluR2) was over 100 µM, the Ki (GluR1 [4]) was over 100 µM and the “agonist or antagonist at GluR5 (electrophysiology)” value (GluR5 [5]) was “GluR5 agonists”. For the same compound, the Ki (GluR7) was 21 µM.
